Reference: ChEMBL document CHEMBL1201862, “PubChem BioAssay data set” (2004)
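Method: 48-hour compound exposure of cells in 96-well plates, five concentrations, linear interpolation of endpoints. Abbreviation: GI50, concentration required for 50% inhibition of growth.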 Active and inactive are the calls of the source. Cut-off read from the data, not from the text of the source: active = GI50 up to about 1.1 µM and inactive = higher.

Tests used:
Assay in all cases: growth of human tumour cells (NCI), 48 h
A549 = system: A549
ACHN = system: ACHN
HOP-18 = system: HOP-18
IGROV-1 = system: IGROV-1
K562 = system: K562
LOX IMVI = system: LOX IMVI
NCI-H23 = system: NCI-H23
NCI-H460 = system: NCI-H460
OVCAR-5 = system: OVCAR-5
RXF 393 = system: RXF 393
SF-295 = system: SF-295
SK-MEL-2 = system: SK-MEL-2
SK-OV-3 = system: SK-OV-3
SNB-19 = system: SNB-19
SW-620 = system: SW-620
TK-10 = system: TK-10
U-251 = system: U-251
UACC-62 = system: UACC-62
COLO 205 = system: COLO 205
XF498 = system: XF498

Measured: GI50

CCOC(=O)C1CCn2c(nc3c(=O)n(C)c(=O)n(C)c32)S1 (stereo not drawn)
inactive: A549 > 100 µM | ACHN > 100 µM | HOP-18 > 100 µM | IGROV-1 > 100 µM | K562 > 100 µM | LOX IMVI > 100 µM | NCI-H23 > 100 µM | NCI-H460 > 100 µM | OVCAR-5 > 100 µM | RXF 393 > 100 µM | SF-295 > 100 µM | SK-MEL-2 > 100 µM | SK-OV-3 > 100 µM | SNB-19 > 100 µM | SW-620 > 100 µM | TK-10 > 100 µM | U-251 > 100 µM | UACC-62 > 100 µM

O=C(CC1=NCCN1)c1ccccc1
inactive: A549 > 213 µM | COLO 205 > 750 µM | HOP-18 > 649 µM | IGROV-1 > 750 µM | K562 > 750 µM | LOX IMVI > 750 µM | NCI-H23 > 750 µM | NCI-H460 > 511 µM | OVCAR-5 > 750 µM | RXF 393 > 750 µM | SF-295 > 750 µM | SK-MEL-2 > 750 µM | SK-OV-3 > 750 µM | SNB-19 > 750 µM | SW-620 > 750 µM | U-251 > 750 µM | UACC-62 > 750 µM | XF498 > 750 µM

COc1ccc(/C(Cl)=C(\C=O)c2ccc(OC)c(OC)c2)cc1
inactive: ACHN 35.3 µM | COLO 205 > 100 µM | HOP-18 49.9 µM | IGROV-1 46.1 µM | K562 21 µM | LOX IMVI 23.3 µM | NCI-H23 21.5 µM | NCI-H460 35.2 µM | SF-295 25.4 µM | SK-MEL-2 18.5 µM | SK-OV-3 62.4 µM | SNB-19 41.1 µM | SW-620 > 100 µM | TK-10 68.2 µM | U-251 29.8 µM | UACC-62 16.6 µM | XF498 22.2 µM
